Assay results as given in US4107424A, “1-N-[(S)-α-hydroxy-ω-aminoacyl] derivatives of 3',4'-dideoxykanamycin B and 3'-deoxykanamycin B antibiotics” (Zaidan Hojin Biseibutsu Kagaku Kenkyu Kai, priority 1972, dated 1978).
Values after ≈ are worked out from the molar mass of the structure shown. Read-outs that look alike come from different tables or passages of the source.

Columns and labels:
Proetus vulgaris OX 19 = assay: Minimum inhibitory concentration, serial dilution method; type: cell-based; conditions: nutrient agar, 37° C, 18 hours; read-out: Minimum inhibitory concentrations
[1] = system: Bacillus cereus ATCC 10702; assay: as above; type: cell-based; conditions: ATCC10702, nutrient agar, 37° C, 18 hours, read-out: Minimum inhibitory concentrations
Bacillus anthracis = assay: microbe, parasite or virus in culture; type: cell-based; conditions: 18 h, read-out: Minimum inhibitory concentrations
[2] = system: Staphylococcus aureus Smith; assay: Minimum inhibitory concentration, serial dilution method; type: cell-based; conditions: nutrient agar, 37° C, 18 hours, read-out: Minimum inhibitory concentrations
mice = assay: Acute intravenous toxicity (LD50) in mice; conditions: in words
[3] = system: Shigella dysenteriae JS 11910; assay: Minimum inhibitory concentration, serial dilution method; type: cell-based; conditions: JS11910, 18 h, read-out: Minimum inhibitory concentrations
Sarcina lutea PCI 1001 = assay: Minimal inhibitory concentration, agar dilution streak method; type: cell-based; conditions: Micrococcus luteus, PCI1001, 18 h, read-out: Minimal inhibitory concentration
Protocol: (§1) [α]D^22 + 38°, (c 0.85, water).
(§2) *Agar Agar dilution streak method (nutrient agar, 37° C, 18 hours)
(§3) *Agar dilution streak method (nutrient agar, 37° C, 18 hours).

Escherichia coli NIHJ = assay: as above; type: cell-based; conditions: nutrient agar, 37° C, 18 hours
Protocol: as §1, §2, §3

Salmonella typhosa T-63 = assay: as above; type: cell-based; conditions: Salmonella enterica, nutrient agar, 37° C, 18 hours
Protocol: as §1, §2, §3

[4] = system: Pseudomonas aeruginosa 99; assay: as above; type: cell-based; conditions: nutrient agar, 37° C, 18 hours
Protocol: as §1, §2, §3

[5] = system: Escherichia coli K-12 R-5; assay: as above; type: cell-based; conditions: K12R5, nutrient agar, 37° C, 18 hours
Protocol: as §1, §2, §3

[6] = system: Staphylococcus aureus Terajima; assay: Minimum inhibitory concentration, serial dilution method; type: cell-based; conditions: nutrient agar, 37° C, 18 hours, read-out: Minimum inhibitory concentrations
in vivo = conditions: mouse, iv
[7] = system: Salmonella enteritidis 1891; assay: Minimum inhibitory concentration, serial dilution method; type: cell-based; conditions: Salmonella enterica, nutrient agar, 37° C, 18 hours, read-out: Minimum inhibitory concentrations
Shigella sonnei JS 11746 = assay: as above; type: cell-based; conditions: JS11746, nutrient agar, 37° C, 18 hours, read-out: Minimum inhibitory concentrations
[8] = system: Mycobacterium smegmatis ATCC 607; assay: Minimal inhibitory concentration, agar dilution streak method; type: cell-based; conditions: Mycolicibacterium smegmatis, ATCC607; nutrient agar, 37° C, 18 hours; read-out: Minimum inhibitory concentrations
[9] = system: Shigella flexneri 4b JS 11811; assay: Minimum inhibitory concentration, serial dilution method; type: cell-based; conditions: 4BJS11811, nutrient agar, 37° C, 18 hours, read-out: Minimum inhibitory concentrations
[10] = system: Pseudomonas aeruginosa No.12; assay: Minimal inhibitory concentration, agar dilution streak method; type: cell-based; conditions: nutrient agar, 37° C, 18 hours
Protocol: as §2, §3

[11] = system: Escherichia coli K-12 JR 66/W 677; assay: as above; type: cell-based; conditions: Escherichia coli, 18 h
Protocol: as §2, §3

[12] = system: Escherichia coli K-12 ML 1630; assay: as above; type: cell-based; conditions: K12ML1630, nutrient agar, 37° C, 18 hours
Protocol: as §2, §3

[13] = system: Escherichia coli K-12 LA 290 R 64; assay: as above; type: cell-based; conditions: nutrient agar, 37° C, 18 hours
Protocol: as §2, §3

[14] = system: Klebsiella pneumoniae type 22 #3038; assay: as above; type: cell-based; conditions: Klebsiella pneumoniae; nutrient agar, 37° C, 18 hours
Protocol: as §2, §3

[15] = system: Staphylococcus aureus FDA 209P; assay: as above; type: cell-based; conditions: FDA209P, nutrient agar, 37° C, 18 hours
Protocol: as §2, §3

[16] = system: Escherichia coli K-12 LA 290 R 55; assay: as above; type: cell-based; conditions: 18 h
Protocol: as §2, §3

[17] = system: Escherichia coli K-12 LA 290 R 56; assay: as above; type: cell-based; conditions: 18 h
Protocol: as §2, §3

[18] = system: Escherichia coli K-12 ML 1410; assay: as above; type: cell-based; conditions: K12ML1410, nutrient agar, 37° C, 18 hours
Protocol: as §2, §3

[19] = system: Pseudomonas aeruginosa GN 315; assay: as above; type: cell-based; conditions: GN315, nutrient agar, 37° C, 18 hours, read-out: Minimal inhibitory concentration
Protocol: as §2, §3

[20] = system: Escherichia coli K-12 ML 1629; assay: as above; type: cell-based; conditions: K12ML1629, nutrient agar, 37° C, 18 hours
Protocol: as §2, §3

Escherichia coli K-12 = assay: as above; type: cell-based; conditions: K12, nutrient agar, 37° C, 18 hours
Protocol: as §2, §3

[21] = system: Escherichia coli K-12 ML 1410 R 81; assay: as above; type: cell-based; conditions: 18 h
Protocol: as §2, §3

[22] = system: Pseudomonas aeruginosa TI-13; assay: as above; type: cell-based; conditions: TI13, nutrient agar, 37° C, 18 hours
Protocol: as §2, §3

[23] = system: Pseudomonas aeruginosa A 3; assay: as above; type: cell-based; conditions: A3, nutrient agar, 37° C, 18 hours
Protocol: as §2, §3

[24] = system: Escherichia coli K-12 W 677; assay: as above; type: cell-based; conditions: K12W677, nutrient agar, 37° C, 18 hours
Protocol: as §2, §3

[25] = system: gram-positive and gram-negative bacteria; assay: Antibacterial activity (in words); type: cell-based; conditions: various gram-positive and gram-negative bacteria, including resistant strains
Protocol: as §1

[26] = system: Corynebacterium bovis 1810; assay: Minimum inhibitory concentration, serial dilution method; type: cell-based; conditions: Corynebacterium bovis, 1810; nutrient agar, 37° C, 18 hours; read-out: Minimum inhibitory concentrations
[27] = system: Bacillus subtilis PCI 219; assay: as above; type: cell-based; conditions: PCI219, nutrient agar, 37° C, 18 hours, read-out: Minimum inhibitory concentrations
[28] = system: Klebsiella pneumoniae PCI 1602; assay: as above; type: cell-based; conditions: PCI1602, nutrient agar, 37° C, 18 hours, read-out: Minimum inhibitory concentrations
[29] = system: kanamycin-resistant strains; conditions: strains producing 3'-hydroxyl phosphorylating enzyme; cited from earlier work
nucleotidyl-transferase = conditions: adenylylation of 2"-hydroxyl group with ATP; cited from earlier work
[30] = read-out: Minimal inhibitory concentration
[31] = read-out: minimum inhibitory concentrations
[32] = drug-resistant strain, read-out: minimum inhibitory concentrations

## NCC[C@H](O)C(=O)N[C@@H]1C[C@H](N)[C@@H](O[C@H]2O[C@H](CN)[C@@H](O)[C@H](O)[C@H]2N)[C@H](O)[C@H]1O[C@H]1O[C@H](CO)[C@@H](O)[C@H](N)[C@H]1O [AHB-kanamycin B, 1-N-[(S)-4-amino-2-hydroxybutyryl]-kanamycin B]
Proetus vulgaris OX 19
  MIC: 1.56 µg/mL (≈ 2.67 µM)
[1]
  MIC: 1.56 µg/mL (≈ 2.67 µM)
Bacillus anthracis
  MIC: < 0.2 µg/mL
[2]
  MIC: < 0.2 µg/mL
mice
  toxicity: low toxicity to animals and men
[3]
  MIC: 3.12 µg/mL (≈ 5.34 µM)
Sarcina lutea PCI 1001
  MIC: 3.13 µg/mL (≈ 5.35 µM)
Escherichia coli NIHJ
  MIC: 0.78 µg/mL (≈ 1.33 µM)
Salmonella typhosa T-63
  MIC: 0.39 µg/mL (≈ 0.667 µM)
[4]; [30]
  MIC: 25 µg/mL (≈ 42.8 µM)
[5]
  MIC: 0.78 µg/mL (≈ 1.33 µM)
[6]
  MIC: 0.2 µg/mL (≈ 0.342 µM)
In vivo
  LD50: > 100 mg/kg
[7]
  MIC: 3.12 µg/mL (≈ 5.34 µM)
Shigella sonnei JS 11746
  MIC: 1.56 µg/mL (≈ 2.67 µM)
[8]
  MIC: 0.78 µg/mL (≈ 1.33 µM)
[9]
  MIC: 3.12 µg/mL (≈ 5.34 µM)
[10]; [30]
  MIC: 6.25 µg/mL (≈ 10.7 µM)
[11]; [30]
  MIC: 3.12 µg/mL (≈ 5.34 µM)
[12]; [30]
  MIC: 1.56 µg/mL (≈ 2.67 µM)
[13]; [30]
  MIC: 0.39 µg/mL (≈ 0.667 µM)
[14]
  MIC: 6.25 µg/mL (≈ 10.7 µM)
[15]; [30]
  MIC: 0.78 µg/mL (≈ 1.33 µM)
[16]; [30]
  MIC: 1.56 µg/mL (≈ 2.67 µM)
[17]; [30]
  MIC: 0.39 µg/mL (≈ 0.667 µM)
[18]; [30]
  MIC: 3.13 µg/mL (≈ 5.35 µM)
[19]
  MIC: 50 µg/mL (≈ 85.5 µM)
[20]; [30]
  MIC: 1.56 µg/mL (≈ 2.67 µM)
Escherichia coli K-12; [30]
  MIC: 0.78 µg/mL (≈ 1.33 µM)
[21]; [30]
  MIC: 1.56 µg/mL (≈ 2.67 µM)
[22]; [30]
  MIC: 6.25 µg/mL (≈ 10.7 µM)
[23]; [30]
  MIC: 6.25 µg/mL (≈ 10.7 µM)
[24]; [30]
  MIC: 0.39 µg/mL (≈ 0.667 µM)
[25]
  antibacterial activity: high antibacterial activity not only against various gram-positive and gram-negative bacteria which are sensitive to kanamycins, but also against the drug-resistant strains of Escherichia coli and Pseudomonas aeruginosa
[26]
  MIC: 0.39 µg/mL (≈ 0.667 µM)
[27]
  MIC: < 0.2 µg/mL
[28]
  MIC: 0.39 µg/mL (≈ 0.667 µM)

## NC[C@@H]1CC[C@@H](N)[C@@H](O[C@H]2[C@H](O)[C@@H](O[C@H]3O[C@H](CO)[C@@H](O)[C@H](N)[C@H]3O)[C@H](N)C[C@@H]2N)O1 [DKB, 3',4'-dideoxykanamycin B]
[29]
  activity against kanamycin-resistant strains: actually effective
[4]; [31]
  MIC: 12.5 µg/mL (≈ 27.7 µM)
[10]; [31]
  MIC: 3.12 µg/mL (≈ 6.91 µM)
[11]; [31]
  MIC: 100 µg/mL (≈ 221 µM)
[12]; [31]
  MIC: 3.12 µg/mL (≈ 6.91 µM)
[13]; [31]
  MIC: 25 µg/mL (≈ 55.4 µM)
[15]; [31]
  MIC: 1.56 µg/mL (≈ 3.45 µM)
[16]; [31]
  MIC: > 100 µg/mL
[17]; [31]
  MIC: 25 µg/mL (≈ 55.4 µM)
[18]; [31]
  MIC: 1.56 µg/mL (≈ 3.45 µM)
[20]; [32]
  MIC: 3.12 µg/mL (≈ 6.91 µM)
Escherichia coli K-12; [31]
  MIC: 1.56 µg/mL (≈ 3.45 µM)
[21]; [31]
  MIC: 3.12 µg/mL (≈ 6.91 µM)
[22]; [31]
  MIC: 3.12 µg/mL (≈ 6.91 µM)
[23]; [31]
  MIC: 3.12 µg/mL (≈ 6.91 µM)
[24]; [31]
  MIC: 1.56 µg/mL (≈ 3.45 µM)
nucleotidyl-transferase
  inactivation by nucleotidyl-transferase: inactivate

## NC[C@H]1O[C@H](O[C@H]2[C@H](O)[C@@H](O[C@H]3O[C@H](CO)[C@@H](O)[C@H](N)[C@H]3O)[C@H](N)C[C@@H]2N)[C@H](O)[C@@H](O)[C@@H]1O [Kanamycin, kanamycin]
[4]; [31]
  MIC: > 100 µg/mL
[10]; [31]
  MIC: 50 µg/mL (≈ 103 µM)
[11]; [31]
  MIC: > 100 µg/mL
[12]; [31]
  MIC: > 100 µg/mL
[13]; [31]
  MIC: 12.5 µg/mL (≈ 25.8 µM)
[15]; [31]
  MIC: 3.12 µg/mL (≈ 6.44 µM)
[16]; [31]
  MIC: 100 µg/mL (≈ 206 µM)
[17]; [31]
  MIC: 12.5 µg/mL (≈ 25.8 µM)
[18]; [31]
  MIC: 1.56 µg/mL (≈ 3.22 µM)
[20]; [32]
  MIC: > 100 µg/mL
Escherichia coli K-12; [31]
  MIC: 0.78 µg/mL (≈ 1.61 µM)
[21]; [31]
  MIC: > 100 µg/mL
[22]; [31]
  MIC: > 100 µg/mL
[23]; [31]
  MIC: > 100 µg/mL
[24]; [31]
  MIC: 1.56 µg/mL (≈ 3.22 µM)
nucleotidyl-transferase
  inactivation by nucleotidyl-transferase: inactivate
